Measurements as given in PubChem BioAssay (NCI).
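Following 48 hours of exposure in 96-well plates, responses at five concentrations were used to interpolate endpoints linearly. TGI: concentration producing complete growth inhibition.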 Where a SMILES comes first, the peptide text is derived from it. The star is where a group is joined. Pentanoyl = CCCCC(=O)*; Boc = CC(C)(C)OC(=O)*

Columns and labels:
Assay in all cases: growth of human tumour cells (NCI), 48 h
BT-549 breast = test system: BT-549 breast
COLO 205 colon = test system: COLO 205 colon
EKVX NSCLC = test system: EKVX NSCLC
HCC-2998 colon = test system: HCC-2998 colon
HCT-116 colon = test system: HCT-116 colon
HOP-92 NSCLC = test system: HOP-92 NSCLC
HT29 colon = test system: HT29 colon
LOX IMVI melanoma = test system: LOX IMVI melanoma
NCI-H460 lung = test system: NCI-H460 lung
OVCAR-4 ovarian = test system: OVCAR-4 ovarian
PC-3 prostate = test system: PC-3 prostate
SF-295 CNS = test system: SF-295 CNS
SK-MEL-28 melanoma = test system: SK-MEL-28 melanoma
SK-OV-3 ovarian = test system: SK-OV-3 ovarian
SNB-19 CNS = test system: SNB-19 CNS
SW-620 colon = test system: SW-620 colon
T-47D breast = test system: T-47D breast
U251 CNS = test system: U251 CNS
UACC-257 melanoma = test system: UACC-257 melanoma
SF-539 CNS = test system: SF-539 CNS

| Structure (SMILES) | TGI (BT-549 breast) [µM] | TGI (COLO 205 colon) [µM] | TGI (EKVX NSCLC) [µM] | TGI (HCC-2998 colon) [µM] | TGI (HCT-116 colon) [µM] | TGI (HOP-92 NSCLC) [µM] | TGI (HT29 colon) [µM] | TGI (LOX IMVI melanoma) [µM] | TGI (NCI-H460 lung) [µM] | TGI (OVCAR-4 ovarian) [µM] | TGI (PC-3 prostate) [µM] | TGI (SF-295 CNS) [µM] | TGI (SK-MEL-28 melanoma) [µM] | TGI (SK-OV-3 ovarian) [µM] | TGI (SNB-19 CNS) [µM] | TGI (SW-620 colon) [µM] | TGI (T-47D breast) [µM] | TGI (U251 CNS) [µM] | TGI (UACC-257 melanoma) [µM] | TGI (SF-539 CNS) [µM] |
| --- | --- | --- | --- | --- | --- | --- | --- | --- | --- | --- | --- | --- | --- | --- | --- | --- | --- | --- | --- | --- |
| O=C1C(c2c(O)[nH]c3ccc(S(=O)(=O)O)cc23)=Nc2ccc(Br)cc21 | > 100 | > 100 | > 100 | > 100 | > 100 | > 100 | > 100 | > 100 | > 100 | > 100 | > 100 | > 100 | > 100 | > 100 | > 100 | > 100 | > 100 | > 100 | > 100 |  |
| O=c1ssc(Cl)c1Nc1c(Cl)ssc1=O | 33.1 | 31.5 | 41.4 | 41.3 | 33.9 | 41.6 | 47.5 | 31.2 | 34.6 | 35.8 | 37.9 | > 100 | > 61.8 | 59 | 69.1 | > 54.4 | 29.8 | 36.8 | 33.4 | 59.3 |
| Nc1c(-c2nc3ccccc3o2)sc(=S)n1-c1ccc(Cl)cc1 | 76 | > 100 | > 100 | > 100 | 29.3 | 63.3 | > 100 |  | > 100 | 31.6 | 82.1 | 27.3 | 37.7 | 33.2 | 39.5 |  | 33.1 | 37.5 | 95.6 | 23.9 |
| N=c1nc2n(cc1F)[C@@H]1O[C@H](CO)[C@@H](O)[C@@H]1O2 | > 100 | > 96.9 | > 100 | > 100 | > 100 | > 65.1 | > 100 | > 100 | > 36 | > 100 | > 100 | > 100 | > 100 | > 100 | > 100 | > 100 | 65.2 | > 91.9 | > 100 | > 77.2 |
| O=C(NNc1ccnc2cc(Cl)ccc12)/C(=C\c1ccccc1Cl)NC(=O)c1ccccc1 | 87.8 | 81.8 | > 100 | > 100 | > 100 | > 100 | > 100 | 32 | > 100 | > 100 | > 100 | 96.1 | > 100 | > 100 | > 100 | > 100 | > 100 | 34 | > 100 | 72.7 |
| CCCCC(=O)Oc1ccc(CC(NC(=O)OC(C)(C)C)C(=O)NC(C)C(=O)NC(Cc2ccccc2)C(=O)NCC(N)=O)cc1 (configuration not stated) (Boc-Y(Pentanoyl)AFG-NH2; configuration not given here) | 55.7 | 37.6 |  | 38.8 | 47.1 | 99.4 | 40 | 30.7 | > 100 | > 100 | > 100 | > 100 | 64.1 | > 100 | 59 | > 100 | 79 | 40.6 | 71.4 | > 100 |
| CN1C(=O)N/C(=C\c2ccc(S(=O)(=O)N/N=C\C(O)C(O)C(O)CO)cc2)C1=O (configuration not stated) | > 100 | > 100 | > 100 | > 100 | > 100 | > 100 | > 100 | > 100 | > 100 | > 100 | > 100 | > 100 | > 100 | > 100 | > 100 | > 100 | > 100 | > 100 | > 100 |  |
| O=C(CC(C(=O)c1ccco1)c1cccs1)c1cccs1 (configuration not stated) | > 100 | > 100 | 97.8 | > 100 | > 100 | > 100 | > 100 | > 100 | > 100 | > 100 | > 100 | > 100 | > 100 | > 100 | > 100 | > 100 | > 100 | > 100 | > 100 | > 100 |
| N#Cc1c(NCCc2ccc(F)cc2)c2ccccc2n2c1nc1ccccc12 | 72.6 | > 100 | 29.3 | > 100 | > 100 | 19.8 | 91.5 | > 100 | > 100 | 9.16 | 82.7 | 65.4 | > 100 | > 100 | 51 | > 100 | 95.6 | 61 | > 100 | > 100 |
| O=C1c2ccccc2C(=O)c2c1ccc1nc3c(nc21)-c1c2ccccc2cc2cccc-3c12 | > 100 | > 100 | > 100 | > 100 | > 100 | > 100 | > 100 | > 100 | > 100 | > 100 | > 100 | > 100 | > 100 | > 100 | > 100 | > 100 | > 84.2 | > 100 | > 100 | > 100 |
| CCOC(=O)C(NCc1ccc2c(c1)OCO2)(NC(=O)c1ccccc1)C(F)(F)F (configuration not stated) | > 100 | > 100 | > 100 | > 100 | > 100 | > 100 | > 100 | > 100 |  | > 100 | > 100 | > 100 | > 100 | > 100 | > 100 | > 100 | > 100 | > 100 | > 100 | > 100 |
| COc1ccc2c(c1)c1c(n2CCN(C)C)-c2cccc(OC)c2CC1 | 40.5 | 27.7 | 35 | 34.9 | 50.3 | 44.2 | 14 | 37.4 | 41.5 | 46.9 | 24.2 | 35.9 | 32 | 35 | 46.8 |  | 27.7 | 32.6 | 37.7 |  |
